Results on four compounds are retold here after patent publication US6872852B2, “Polyamine analogues as cytotoxic agents” (MediQuest Therapeutics, Inc., priority 2000, dated 2005).

The test system of data set [1] is MDA-MB-231 cells. The data set is described as follows: Cytotoxicity, MTS assay after 3 days. The data set is classed as cell-based, human. Conditions: for IC50: 3 days incubation, MTS, determined by the inventors, read-out: IC50 against MDA cells. In general terms: Formazan colour is commonly taken as a measure of viable cells.
Method: After a total of 3-days, cell growth was evaluated by MTS assay (Promega).
The test system of another data set is SK-MEL-5 cells. The data set can be described thus: Cytotoxicity, MTS assay after 3 days. In kind it is cell-based. As to conditions: 3 days incubation, read-out: IC50 against SK-MEL-5 cells. Here is the method:
Briefly, cells were plated at 1500 (SK-MEL-5) or 5000 (MDA) cells/well in a 96-well plate and allowed to adhere for 1 day. The indicated analogues were added and the cells were incubated for 3 days, when cell growth was evaluated by MTS assay (Promega). Vertical axis represents cell number as a % of no drug treatment controls. Additionally, significant activity was seen against PC-3 cells (see FIGS. 4 and 11).

Data set [2] concerns PC-3 cells. The data set can be described thus: Cytotoxicity / cell growth, MTS assay. In kind it is cell-based, human. Conditions: for inhibition of growth of PC-3 cells: 3 days; for IC50: determined by the present inventors. As for the experimental part:
Involvement of the pro-apoptotic caspase-3 enzyme in the action of OR 1313 is shown by the experiment represented in FIG. 10. Briefly, PC-3 cells were plated at 1000 cells/well in a 96-well plate and allowed to adhere for 1 day. 10 μM of ORI 1313 and 0, 5, or 15 μM Z-DEVD-fmk, a caspase inhibitor, were added and the cells were incubated for 3 days. Cell growth was evaluated by MTS assay (Promega). Vertical axis represents cell number as a % of no drug treatment controls.

The test system of a further data set is MDA cells. The data set can be described thus: NCI 60-cell line screen. The data set is classed as cell-based, human. As to conditions: determined by NCI. As for the experimental part:
(§1) ORI 1313 and ORI 1327 were evaluated by the National Cancer Institute (NCI) with a 60-cell line screen.

In data set [3] the test system is PC-3 cells. The data set is described as follows: NCI 60-cell line screen. As to conditions: determined by NCI. The data set is classed as cell-based, human. Here is the method: as §1
In the next data set the test system is melanoma cell lines. The data set is described as follows: NCI 60-cell line screen. In kind it is cell-based. As to conditions: 8 melanoma lines. Here is the method:
as §1

For data set [4], the system named is MDA-MB-231 cells. The data set can be described thus: Cell cycle analysis by FACS (propidium iodide), apoptotic fraction. In kind it is cell-based, human. As for the experimental part: Cell cycle analysis was performed using fluorescent activated cell sorter (FACS) analysis on polyamine analogue treated MDA cells (see FIGS. 7A-7C). Briefly, MDA-MB-231 cells were grown in the presence of ORI 1313 or ORI 1327 for various times then fixed with ethanol and stained with propidium iodide. Cells were analyzed by FACS, with the areas on the histograms designating DNA content and cell cycle stage: M1, G1; M2, S; M3, G2/M; M4, <2N (apoptotic cells).
In general terms: In flow cytometry, cells or beads pass a laser one at a time.

The test system of data set [5] is MES-SA/Dx5 uterine sarcoma cell line. The data set can be described thus: Growth inhibition of multi-drug resistant cells, MTS assay. Conditions: inferred from parent vs MDR-1 expressing line. In kind it is cell-based, human. Here is the method:
An unexpected observation made during the cellular characterization of ORI 1313 and ORI 1327 was their growth inhibitory activity against the multi-drug resistant (MDR) uterine sarcoma cell line, MES-SA/Dx5 (see FIGS. 8A and 8B). Briefly, cells were plated at 1000 cells/well in a 96-well plate and allowed to adhere for 1 day. The indicated analogue was added and the cells were incubated for 3 days when cell growth was evaluated by MTS assay (Promega). Vertical axis represents cell number as a % of no drug treatment controls
The MES-SA/Dx5 cell line was developed by selection on doxorubicin and over-expresses the mRNA of the multi-drug resistance gene (MDR-1). The cells are thus much less sensitive to drugs exported via P-glycoprotein (P-gp). See Harker, W. G. et al. Multi-drug (pleiotropic) resistance in doxorubicin-selected variants of the human sarcoma cell line MES-SA. Cancer Research, 1985, 45, 4091-4096. […] This will be particularly advantageous in situations involving target cells expressing MDR-1.

For data set [6], the system named is cellular polyamine levels. The data set is described as follows: Intracellular polyamine levels by HPLC. The data set is classed as cell-based. As to conditions: 11 hr treatment. Here is the method: To determine the effects of treatment with polyamine analogues on cellular polyamine levels, intracellular polyamine levels were measured by high performance liquid chromatography (HPLC) after 11 hr treatment with ORI 1313 (32 μM) or ORI 1327 (3 μM). […] This observation is consistent with the previous observations in the field.

A further data set concerns cell growth. The data set is described as follows: Co-treatment experiments on analogue cytotoxicity. In kind it is cell-based. As to conditions: for effect of co-treatment with DFMO on results: 1 mM DFMO; for effect of co-treatment with putrescine on cytotoxic effects: 50-fold excess concentration of putrescine; for effect of co-treatment with ORI 1202 on inhibition of cell growth: polyamine transport inhibitor ORI 1202.

The subject of data set [7] is putrescine uptake into MDA cells. The data set can be described thus: Inhibition of 3H-putrescine uptake. As to conditions: read-out: Kiapp versus putrescine uptake into MDA cells. The data set is classed as cell-based, human.
The subject of data set [8] is putrescine uptake into PC-3 cells. The data set can be described thus: Inhibition of 3H-putrescine uptake. In kind it is cell-based, human. As to conditions: read-out: Kiapp versus putrescine uptake into PC-3 cells.
Data set [9] deals with A375 human melanoma xenografts. The data set can be described thus: A375 human melanoma xenograft in nude mice. The data set is classed as in vivo. For orientation: A xenograft is tissue or cells of one species grown in another, often human tumour cells in immunodeficient mice.
Method: ORI was tested in a melanoma tumor xenograft tumor models in BALB/c nude mice. […] The xenograft efficacy study would be performed with two drug concentrations. There were four groups of 10 mice. Treatment groups received the maximum tolerated dose (MTD) or ½ MTD of each analogue. […] A positive control group treated with dacarbazine DTIC (dosage of 180 mg/kg i.p. once per day for 5 days) was used to validate this tumor model system.
Female BALB/c nu/nu athymic mice weighing 20 grams were the animal host for the human xenografts. The method of administration was i.p. injections with 9 mM or 4 mM ORI 1313 once daily for the duration of the study (end point when control tumors reached 2000 mg). […] DITC was administered by i.p. injection once daily for 5 days. Treatment started when the tumors reach 5 mm×5 mm size (50 mg). The mouse weight and tumor size were measured twice weekly. The tumor measurements by calipers were then converted to mg tumor volume by the formula L^2×W/2. Once the control tumors reached 2000 mg both the control and treatment group mice were weighed, sacrificed and the tumors removed. The actual weights of tumors were then used to calculate the percent growth inhibition by each analogue using the formula: % growth inhibition=(mean treated tumor weight/mean control tumor weight×100)−100.
The subject of data set [10] is A375 human melanoma cell line. The data set is described as follows: Cytotoxicity against A375 cell line. The data set is classed as cell-based.
Data set [11] concerns BALB/c mice. As to conditions: mouse, in vivo, ip.
Method: (§2) Chronic toxicities were evaluated by giving i.p. injections once daily for 5 consecutive days.
For data set [12], the system named is BALB/c mice. Conditions: mouse, in vivo, ip. The source holds these as a separate data set.
Method: as §2
In data set [13] the test system is BALB/c mice. The data set is described as follows: Acute toxicity, single i.p. injection.
Method: as §2
Data set [14] relates to BALB/c mice. The data set is described as follows: Chronic toxicity, i.p. once daily for 5 consecutive days.
Method: as §2
In data set [15] the test system is [1,4-14C]-putrescine uptake. Conditions: Frydman et al.; cited from earlier work.
The test system of data set [16] is putrescine uptake into MDA cells. Conditions: read-out: Km for uptake into MDA cells; previously shown; cited from earlier work.

For `c1ccc(CNCCCNCc2ccccc2)cc1` [N^1, N^3-dibenzyl analog of 1,3-diaminopropane, reference compound], the IC50 with MDA-MB-231 cells [1] is 28.8 µM.
In the case of `c1ccc2c(CNCCCCNCc3cccc4ccccc34)cccc2c1` [ORI 1313], the IC50 with SK-MEL-5 cells worked out at 4.1 µM; in the data set on MDA-MB-231 cells [1] it was 12 µM; with PC-3 cells [2], 20 µM; with MDA cells, 2.3 µM; in the data set with PC-3 cells [3], 11.2 µM; in data set [10], 4.1 µM. For the same compound, in the data set on MDA-MB-231 cells [1], the “increase over N1,N4-dibenzylputrescine in potency of cytotoxic activity against MDA cells” value is 16 fold. The “inhibition of growth of PC-3 cells” value with PC-3 cells [2] (10 μM ORI 1313 + 5 μM Z-DEVD-fmk) turned out to be 19%; with PC-3 cells [2] (10 μM ORI 1313 + 15 μM Z-DEVD-fmk), 10%; in the data set with PC-3 cells [2] (10 μM ORI 1313 alone), 46%. The “effectiveness against melanoma cell lines tested” value with melanoma cell lines was 6 of 8. Also, the “<2N DNA content (apoptotic fraction)” value in the data set on MDA-MB-231 cells [4] (32 μM, 11 hr treatment) is reported as 21%; in the data set with MDA-MB-231 cells [4] (32 μM, 24 hr treatment) it was 49%; in the data set with MDA-MB-231 cells [4] (32 μM, 48 hr treatment) it was 30%. In data set [5], the “substrate for the P-gp multi-drug exporter” value is “not substrates”. Also, the “effect on cellular polyamine levels” value in data set [6] (32 μM) is “no significant effects”. Also, the “effect of co-treatment with DFMO on results” value in the data set with cell growth was “did not alter”. In the data set with cell growth, the “effect of co-treatment with putrescine on cytotoxic effects” value is given as “did not block”. Also, the “effect of co-treatment with ORI 1202 on inhibition of cell growth” value in the data set with cell growth is given as “did not alter”. Besides, the Ki in data set [7] was determined as 28.3 µM; in [8], 24.1 µM. Moreover, the “adverse findings in xenograft study” value in data set [9] (after 7 weeks of treatment) was “transient skin ulceration and weight loss”. Further, the tumor growth inhibition in data set [9] (at 25 days, vs 5% dextrose control, i.p. once daily) came to 36%. The “tolerability in xenograft study” value in data set [9] (i.p. once daily, nude mice) is “well tolerated up to 7 weeks”. Moreover, the tumor growth delay in [9] (vs 5% dextrose control, i.p. once daily) is 6.2 days. The solubility result (dihydrochloride salt, in 5% DMSO) is “at least 40 mM”. Also, the “tolerated dose, acute” value with BALB/c mice [11] was 93 mg/kg. Moreover, the “approximate maximum tolerated dosage” value in the data set with BALB/c mice [12] is ~40 mg/kg. Besides, the “tolerated dose, chronic” value in the data set on BALB/c mice [12] worked out at 40 mg/kg. Further, in the data set on BALB/c mice [13], the “dose that caused death, acute” value turned out to be 186 mg/kg. Besides, the “lethal dosage, chronic” value in the data set on BALB/c mice [14] is 80 mg/kg.
Take `c1ccc(N(c2ccccc2)c2ccc(CNCCCCNCc3ccc(N(c4ccccc4)c4ccccc4)cc3)cc2)cc1` [ORI 1327]: the concentration for half-maximal inhibition (IC50) in the data set with SK-MEL-5 cells worked out at 0.71 µM. In addition, in the data set with MDA-MB-231 cells [1], the IC50 is 0.65 µM and the “increase over N1,N4-dibenzylputrescine in potency of cytotoxic activity against MDA cells” value is 295 fold. Also, in the data set with PC-3 cells [2], the IC50 amounted to 0.65 µM. The same compound returned a half-maximal inhibitory concentration (IC50) in the data set with MDA cells of 0.005 µM. In the data set with PC-3 cells [3], half-maximal inhibition (IC50) was put at 0.81 µM. The “<2N DNA content (apoptotic fraction)” value in the data set with MDA-MB-231 cells [4] (3 μM, 11 hr treatment) stood at 15%. In addition, the “substrate for the P-gp multi-drug exporter” value in data set [5] is reported as “not substrates”. Besides, the “effect on cellular polyamine levels” value in data set [6] (3 μM) is on record as “no significant effects”. For the same compound, in the data set on cell growth, the “effect of co-treatment with DFMO on results” value is given as “did not alter”, the “effect of co-treatment with putrescine on cytotoxic effects” value was “did not block” and the “effect of co-treatment with ORI 1202 on inhibition of cell growth” value is on record as “did not alter”. Further, the Ki in data set [8] was 14.3 µM. Moreover, where the note is “dihydrochloride salt”, the “solubility relative to lactate salt” value is “less soluble”. For the same compound, the solution concentration produced (hydroxypropyl-β-cyclodextrin, 45% w/v HβC in H2O) is given as 40 mM. Besides, the maximum solubility (lactate salt, aqueous) was determined as 5000 µM. The “tolerated dose, acute” value in the data set on BALB/c mice [11] was found to be 37 mg/kg. In the data set on BALB/c mice [12], the “approximate maximum tolerated dosage” value is ~7.5 mg/kg and the “tolerated dose, chronic” value was 7.5 mg/kg. The “dose that caused death, acute” value in the data set on BALB/c mice [13] stood at 75 mg/kg. Further, the “lethal dosage, chronic” value in the data set on BALB/c mice [14] worked out at 30 mg/kg.
Take `NCCCCN` [Putrescine, 1,4-diaminobutane]: the “Kmapp, putrescine uptake” value in [15] was 5.2 ± 0.6 µM. Moreover, the Michaelis constant (Km) in data set [16] is 12.4 µM.

A word on the IC50: it is the point on the concentration scale where inhibition reaches its midpoint. As usually defined, the Km is the substrate concentration at which the rate is half of its maximum.
